Reference: ChEMBL document CHEMBL1201862, “PubChem BioAssay data set” (2004)
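Results reflect a 48-hour exposure of cells in 96-well plates to compound at five concentrations. GI50 = concentration required for 50% inhibition of growth.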 Active and inactive are the calls of the source. Cut-off read from the data, not from the text of the source: active = GI50 up to about 1.1 µM and inactive = higher.

Key:
Test in all cases: inhibition of tumour cell growth, NCI panel, 48 h
[1] = tested on: RPMI-8226
[2] = tested on: SNB-75
[3] = tested on: MOLT-4
[4] = tested on: COLO 205
[5] = tested on: SK-OV-3
[6] = tested on: K562
[7] = tested on: NCI-H522
[8] = tested on: NCI-H23
[9] = tested on: DMS-273
[10] = tested on: SF-268
[11] = tested on: A498
[12] = tested on: SN12C
[13] = tested on: M19-MEL
[14] = tested on: SK-MEL-2
[15] = tested on: OVCAR-4
[16] = tested on: M14
[17] = tested on: UACC-62
[18] = tested on: SR
[19] = tested on: UO-31
[20] = tested on: NCI-H226
[21] = tested on: HOP-62
[22] = tested on: CCRF-CEM
[23] = tested on: Malme-3M
[24] = tested on: HCC 2998
[25] = tested on: SNB-78
[26] = tested on: NCI-H460
[27] = tested on: CAKI-1
[28] = tested on: HOP-92
[29] = tested on: HL-60
[30] = tested on: DLD-1
[31] = tested on: LXFL 529
[32] = tested on: SF-539
[33] = tested on: IGROV-1
[34] = tested on: 786-0
[35] = tested on: HCT-15
[36] = tested on: XF498
[37] = tested on: HCT-116
[38] = tested on: SK-MEL-28
[39] = tested on: ACHN
[40] = tested on: EKVX
[41] = tested on: KM12
[42] = tested on: SW-620
[43] = tested on: DMS-114
[44] = tested on: LOX IMVI
[45] = tested on: OVCAR-3
[46] = tested on: OVCAR-5
[47] = tested on: UACC-257
[48] = tested on: RXF 393
[49] = tested on: OVCAR-8
[50] = tested on: KM-20L2
[51] = tested on: SK-MEL-5
[52] = tested on: SNB-19
[53] = tested on: SF-295
[54] = tested on: A549
[55] = tested on: HT-29
[56] = tested on: U-251
[57] = tested on: TK-10

CCOc1ccc(NC(=O)c2c(N/N=C/c3ccc(OC)cc3)nc(=O)[nH]c2C)cc1
GI50 [1]: > 100 µM (inactive) | GI50 [2]: 37.8 µM (inactive) | GI50 [3]: > 100 µM (inactive) | GI50 [4]: > 100 µM (inactive) | GI50 [5]: 33.6 µM (inactive) | GI50 [6]: > 100 µM (inactive) | GI50 [7]: 22.9 µM (inactive) | GI50 [8]: 65.8 µM (inactive) | GI50 [9]: 33.7 µM (inactive) | GI50 [10]: > 100 µM (inactive) | GI50 [11]: 18.4 µM (inactive) | GI50 [12]: 76 µM (inactive) | GI50 [13]: 85.5 µM (inactive) | GI50 [14]: 84.5 µM (inactive) | GI50 [15]: 34.7 µM (inactive) | GI50 [16]: 45.4 µM (inactive) | GI50 [17]: > 100 µM (inactive) | GI50 [18]: > 100 µM (inactive) | GI50 [19]: 49.4 µM (inactive) | GI50 [20]: 41.6 µM (inactive) | GI50 [21]: 38.5 µM (inactive) | GI50 [22]: > 100 µM (inactive) | GI50 [23]: 97.9 µM (inactive) | GI50 [24]: > 100 µM (inactive) | GI50 [25]: 57.8 µM (inactive) | GI50 [26]: 56.4 µM (inactive) | GI50 [27]: 44.5 µM (inactive) | GI50 [28]: 46.2 µM (inactive) | GI50 [29]: > 100 µM (inactive) | GI50 [30]: 63.5 µM (inactive) | GI50 [31]: > 100 µM (inactive) | GI50 [32]: 37 µM (inactive) | GI50 [33]: 51.5 µM (inactive) | GI50 [34]: 52.2 µM (inactive) | GI50 [35]: > 100 µM | GI50 [36]: > 100 µM (inactive) | GI50 [37]: 38.6 µM (inactive) | GI50 [38]: > 100 µM (inactive) | GI50 [39]: 60 µM (inactive)

O=c1n(CC2CS2)c2ccccc2n1CC1CS1 (stereo unspecified)
GI50 [1]: 27.2 µM (inactive) | GI50 [2]: 65.3 µM (inactive) | GI50 [3]: 18.8 µM (inactive) | GI50 [4]: 62.4 µM (inactive) | GI50 [5]: > 100 µM (inactive) | GI50 [6]: 33.8 µM (inactive) | GI50 [7]: 30.8 µM (inactive) | GI50 [9]: 31.9 µM (inactive) | GI50 [10]: 57.7 µM (inactive) | GI50 [12]: 87.7 µM (inactive) | GI50 [13]: 42.8 µM (inactive) | GI50 [14]: 28.9 µM (inactive) | GI50 [15]: 41.7 µM (inactive) | GI50 [40]: > 100 µM (inactive) | GI50 [16]: 35.2 µM (inactive) | GI50 [17]: 33.3 µM (inactive) | GI50 [18]: 45.5 µM (inactive) | GI50 [21]: 39.5 µM (inactive) | GI50 [41]: 35.3 µM (inactive) | GI50 [22]: 21 µM (inactive) | GI50 [23]: 18.2 µM (inactive) | GI50 [24]: 82.8 µM (inactive) | GI50 [27]: 42.9 µM (inactive) | GI50 [28]: 42.3 µM (inactive) | GI50 [29]: 39.2 µM (inactive) | GI50 [31]: 31.2 µM (inactive) | GI50 [33]: 39.2 µM (inactive) | GI50 [35]: 42.7 µM | GI50 [36]: > 100 µM (inactive) | GI50 [37]: 25.1 µM (inactive) | GI50 [42]: > 10 µM (inactive) | GI50 [43]: 30.5 µM (inactive) | GI50 [44]: 30.2 µM (inactive) | GI50 [39]: 45.7 µM (inactive) | GI50 [45]: 43.8 µM (inactive)

CC(=O)OCC(OC(C)=O)C(OC(C)=O)C(OC(C)=O)C(=O)CNn1c(-c2ccccc2Cl)nc2ccccc2c1=O (stereo unspecified)
GI50 [1]: 76 µM (inactive) | GI50 [2]: > 100 µM (inactive) | GI50 [3]: > 100 µM (inactive) | GI50 [4]: > 100 µM (inactive) | GI50 [5]: > 100 µM (inactive) | GI50 [6]: > 100 µM (inactive) | GI50 [7]: > 100 µM (inactive) | GI50 [8]: > 100 µM (inactive) | GI50 [9]: > 100 µM (inactive) | GI50 [46]: > 100 µM (inactive) | GI50 [10]: > 100 µM (inactive) | GI50 [11]: > 100 µM (inactive) | GI50 [12]: > 100 µM (inactive) | GI50 [13]: > 100 µM (inactive) | GI50 [14]: > 100 µM (inactive) | GI50 [15]: > 100 µM (inactive) | GI50 [40]: > 100 µM (inactive) | GI50 [47]: > 100 µM (inactive) | GI50 [16]: > 100 µM (inactive) | GI50 [17]: > 100 µM (inactive) | GI50 [48]: > 100 µM (inactive) | GI50 [49]: > 100 µM (inactive) | GI50 [18]: 61.9 µM (inactive) | GI50 [19]: > 100 µM (inactive) | GI50 [20]: > 100 µM (inactive) | GI50 [21]: > 100 µM (inactive) | GI50 [50]: > 100 µM (inactive) | GI50 [41]: > 100 µM (inactive) | GI50 [22]: 84.3 µM (inactive) | GI50 [23]: > 100 µM (inactive) | GI50 [25]: > 100 µM (inactive) | GI50 [26]: > 100 µM (inactive) | GI50 [51]: > 100 µM (inactive) | GI50 [27]: > 100 µM (inactive) | GI50 [29]: 38.5 µM (inactive) | GI50 [31]: > 100 µM (inactive) | GI50 [52]: > 100 µM (inactive) | GI50 [32]: > 100 µM (inactive) | GI50 [53]: > 100 µM (inactive) | GI50 [34]: > 100 µM (inactive) | GI50 [35]: > 100 µM | GI50 [37]: > 100 µM (inactive) | GI50 [42]: > 100 µM (inactive) | GI50 [54]: > 100 µM (inactive) | GI50 [55]: > 100 µM (inactive) | GI50 [38]: > 100 µM (inactive) | GI50 [56]: > 100 µM (inactive) | GI50 [43]: > 100 µM (inactive) | GI50 [44]: > 100 µM (inactive) | GI50 [39]: > 100 µM (inactive) | GI50 [45]: > 100 µM (inactive)

COC1=CC(=O)[C@H]2[C@H](C)C(c3ccccc3)[C@@]2(C)C1=O (stereo partly specified)
GI50 [1]: > 100 µM (inactive) | GI50 [2]: > 100 µM (inactive) | GI50 [3]: > 100 µM (inactive) | GI50 [4]: > 100 µM (inactive) | GI50 [5]: > 100 µM (inactive) | GI50 [6]: > 100 µM (inactive) | GI50 [7]: > 100 µM (inactive) | GI50 [8]: > 100 µM (inactive) | GI50 [9]: > 100 µM (inactive) | GI50 [46]: > 100 µM (inactive) | GI50 [10]: > 100 µM (inactive) | GI50 [11]: > 100 µM (inactive) | GI50 [13]: > 100 µM (inactive) | GI50 [14]: > 100 µM (inactive) | GI50 [15]: > 100 µM (inactive) | GI50 [40]: > 100 µM (inactive) | GI50 [16]: > 100 µM (inactive) | GI50 [17]: > 100 µM (inactive) | GI50 [48]: > 100 µM (inactive) | GI50 [49]: > 100 µM (inactive) | GI50 [18]: > 100 µM (inactive) | GI50 [19]: > 100 µM (inactive) | GI50 [21]: > 100 µM (inactive) | GI50 [41]: > 100 µM (inactive) | GI50 [22]: > 100 µM (inactive) | GI50 [23]: > 100 µM (inactive) | GI50 [57]: > 100 µM (inactive) | GI50 [24]: > 100 µM (inactive) | GI50 [25]: > 100 µM (inactive) | GI50 [26]: > 100 µM (inactive) | GI50 [51]: > 100 µM (inactive) | GI50 [27]: > 100 µM (inactive) | GI50 [28]: > 100 µM (inactive) | GI50 [29]: > 100 µM (inactive) | GI50 [30]: > 100 µM (inactive) | GI50 [31]: > 100 µM (inactive) | GI50 [52]: > 100 µM (inactive) | GI50 [32]: > 100 µM (inactive) | GI50 [33]: > 100 µM (inactive) | GI50 [53]: > 100 µM (inactive) | GI50 [34]: > 100 µM (inactive) | GI50 [35]: > 100 µM | GI50 [36]: > 100 µM (inactive) | GI50 [42]: > 100 µM (inactive) | GI50 [54]: > 100 µM (inactive) | GI50 [55]: > 100 µM (inactive) | GI50 [38]: > 100 µM (inactive) | GI50 [56]: > 100 µM (inactive) | GI50 [44]: > 100 µM (inactive) | GI50 [39]: > 100 µM (inactive) | GI50 [45]: > 100 µM (inactive)
